Measured values taken from ChEMBL document CHEMBL1148993, “UV-mediated genotoxicity of furanoquinoline and of certain tryptophan-derived alkaloids” (J Nat Prod, 1983).

Tests used:
CHO [1] = test: Genotoxicity in CHO cells assessed as chromosomal aberrations at 0.78 ppm after 60 mins in dark followed by 5 W/m'2 UV irradiation for 30 mins; assay type: toxicity, cell-based, Cricetulus griseus; settings: chinese hamster, 0.5 h
Pseudomonas fluorescens [2] = test: Phototoxicity against Pseudomonas fluorescens at 100 ug/disk in dark; assay type: functional; settings: light or radiation study, read-out: IZ
Saccharomyces cerevisiae [3] = test: Phototoxicity against Saccharomyces cerevisiae at 100 ug/disk in dark; assay type: functional; settings: light or radiation study, read-out: IZ
Pseudomonas aeruginosa [4] = test: Phototoxicity against Pseudomonas aeruginosa at 100 ug/disk after irradiation with W/m'2 UV light; assay type: functional; settings: light or radiation study, read-out: IZ
Bacillus subtilis [5] = test: Phototoxicity against Bacillus subtilis at 100 ug/disk in dark; assay type: functional; settings: light or radiation study, read-out: IZ
CHO [6] = test: Genotoxicity in CHO cells assessed as chromosomal aberrations at 6.25 ppm after 60 mins in dark followed by 5 W/m'2 UV irradiation for 30 mins; assay type: toxicity, cell-based, Cricetulus griseus; settings: chinese hamster, 0.5 h
Escherichia coli [7] = test: Phototoxicity against Escherichia coli at 100 ug/disk in dark; assay type: functional; settings: light or radiation study, read-out: IZ
CHO [8] = test: Genotoxicity in CHO cells assessed as chromosomal aberrations at 0.39 ppm after 60 mins in dark followed by 5 W/m'2 UV irradiation for 30 mins; assay type: toxicity, cell-based, Cricetulus griseus; settings: chinese hamster, 0.5 h
Staphylococcus aureus [9] = test: Phototoxicity against Staphylococcus aureus at 100 ug/disk in dark; assay type: functional; settings: light or radiation study, read-out: IZ
Pseudomonas aeruginosa [10] = test: Phototoxicity against Pseudomonas aeruginosa at 100 ug/disk in dark; assay type: functional; settings: light or radiation study, read-out: IZ
CHO [11] = test: Genotoxicity in CHO cells assessed as chromosomal aberrations at 12.5 ppm after 60 mins in dark followed by 5 W/m'2 UV irradiation for 30 mins; assay type: toxicity, cell-based, Cricetulus griseus; settings: chinese hamster, 0.5 h
Candida albicans [12] = test: Phototoxicity against Candida albicans at 100 ug/disk after irradiation with W/m'2 UV light; assay type: functional; settings: light or radiation study, read-out: IZ
Enterococcus faecalis [13] = test: Phototoxicity against Streptococcus faecalis at 100 ug/disk in dark; assay type: functional; settings: light or radiation study, read-out: IZ
Saccharomyces cerevisiae [14] = test: Phototoxicity against Saccharomyces cerevisiae at 100 ug/disk after irradiation with W/m'2 UV light; assay type: functional; settings: light or radiation study, read-out: IZ
Staphylococcus aureus [15] = test: Phototoxicity against Staphylococcus aureus at 100 ug/disk after irradiation with W/m'2 UV light; assay type: functional; settings: light or radiation study, read-out: IZ
CHO [16] = test: Genotoxicity in CHO cells assessed as chromosomal aberrations at 12.5 ppm after 90 mins in dark; assay type: toxicity, cell-based, Cricetulus griseus; settings: chinese hamster, 1.5 h
Escherichia coli [17] = test: Phototoxicity against Escherichia coli at 100 ug/disk after irradiation with W/m'2 UV light; assay type: functional; settings: light or radiation study, read-out: IZ
CHO [18] = test: Genotoxicity in CHO cells assessed as chromosomal aberrations at 0.19 ppm after 60 mins in dark followed by 5 W/m'2 UV irradiation for 30 mins; assay type: toxicity, cell-based, Cricetulus griseus; settings: chinese hamster, 0.5 h
Enterococcus faecalis [19] = test: Phototoxicity against Streptococcus faecalis at 100 ug/disk after irradiation with W/m'2 UV light; assay type: functional; settings: light or radiation study, read-out: IZ
CHO [20] = test: Genotoxicity in CHO cells assessed as mitotic inhibition at 3.12 ppm after 60 mins in dark followed by 5 W/m'2 UV irradiation for 30 mins; assay type: toxicity, cell-based, Cricetulus griseus; settings: chinese hamster, 0.5 h
Bacillus subtilis [21] = test: Phototoxicity against Bacillus subtilis at 100 ug/disk after irradiation with W/m'2 UV light; assay type: functional; settings: light or radiation study, read-out: IZ
Candida albicans [22] = test: Phototoxicity against Candida albicans at 100 ug/disk in dark; assay type: functional; settings: light or radiation study, read-out: IZ
Pseudomonas fluorescens [23] = test: Phototoxicity against Pseudomonas fluorescens at 100 ug/disk after irradiation with W/m'2 UV light; assay type: functional; settings: light or radiation study, read-out: IZ
CHO [24] = test: Genotoxicity in CHO cells assessed as chromosomal aberrations at 1.56 ppm after 60 mins in dark followed by 5 W/m'2 UV irradiation for 30 mins; assay type: toxicity, cell-based, Cricetulus griseus; settings: chinese hamster, 0.5 h
Bacillus subtilis [25] = test: Phototoxicity against Bacillus subtilis at 16.7 ug/disk after irradiation with W/m'2 UV light; assay type: functional; settings: light or radiation study, read-out: IZ
Saccharomyces cerevisiae [26] = test: Phototoxicity against Saccharomyces cerevisiae at 16.7 ug/disk in dark; assay type: functional; settings: light or radiation study, read-out: IZ
Pseudomonas fluorescens [27] = test: Phototoxicity against Pseudomonas fluorescens at 16.7 ug/disk in dark; assay type: functional; settings: light or radiation study, read-out: IZ
CHO [28] = test: Genotoxicity in CHO cells assessed as chromosomal aberrations at 10.4 ppm after 60 mins in dark followed by 5 W/m'2 UV irradiation for 30 mins; assay type: toxicity, cell-based, Cricetulus griseus; settings: chinese hamster, 0.5 h
CHO [29] = test: Genotoxicity in CHO cells assessed as chromosomal aberrations at 41.7 ppm after 60 mins in dark followed by 5 W/m'2 UV irradiation for 30 mins; assay type: toxicity, cell-based, Cricetulus griseus; settings: chinese hamster, 0.5 h
CHO [30] = test: Genotoxicity in CHO cells assessed as mitotic inhibition at 2.6 ppm after 60 mins in dark followed by 5 W/m'2 UV irradiation for 30 mins; assay type: toxicity, cell-based, Cricetulus griseus; settings: chinese hamster, 0.5 h
Enterococcus faecalis [31] = test: Phototoxicity against Streptococcus faecalis at 16.7 ug/disk in dark; assay type: functional; settings: light or radiation study, read-out: IZ
CHO [32] = test: Genotoxicity in CHO cells assessed as chromosomal aberrations at 20.8 ppm after 60 mins in dark followed by 5 W/m'2 UV irradiation for 30 mins; assay type: toxicity, cell-based, Cricetulus griseus; settings: chinese hamster, 0.5 h
Bacillus subtilis [33] = test: Phototoxicity against Bacillus subtilis at 16.7 ug/disk in dark; assay type: functional; settings: light or radiation study, read-out: IZ
Staphylococcus aureus [34] = test: Phototoxicity against Staphylococcus aureus at 16.7 ug/disk after irradiation with W/m'2 UV light; assay type: functional; settings: light or radiation study, read-out: IZ
Escherichia coli [35] = test: Phototoxicity against Escherichia coli at 16.7 ug/disk after irradiation with W/m'2 UV light; assay type: functional; settings: light or radiation study, read-out: IZ
Staphylococcus aureus [36] = test: Phototoxicity against Staphylococcus aureus at 16.7 ug/disk in dark; assay type: functional; settings: light or radiation study, read-out: IZ
Pseudomonas aeruginosa [37] = test: Phototoxicity against Pseudomonas aeruginosa at 16.7 ug/disk in dark; assay type: functional; settings: light or radiation study, read-out: IZ
Candida albicans [38] = test: Phototoxicity against Candida albicans at 16.7 ug/disk after irradiation with W/m'2 UV light; assay type: functional; settings: light or radiation study, read-out: IZ
CHO [39] = test: Genotoxicity in CHO cells assessed as chromosomal aberrations at 83.5 ppm after 60 mins in dark followed by 5 W/m'2 UV irradiation for 30 mins; assay type: toxicity, cell-based, Cricetulus griseus; settings: chinese hamster, 0.5 h
Enterococcus faecalis [40] = test: Phototoxicity against Streptococcus faecalis at 16.7 ug/disk after irradiation with W/m'2 UV light; assay type: functional; settings: light or radiation study, read-out: IZ
CHO [41] = test: Genotoxicity in CHO cells assessed as chromosomal aberrations at 83.5 ppm after 90 mins in dark; assay type: toxicity, cell-based, Cricetulus griseus; settings: chinese hamster, 1.5 h
Saccharomyces cerevisiae [42] = test: Phototoxicity against Saccharomyces cerevisiae at 16.7 ug/disk after irradiation with W/m'2 UV light; assay type: functional; settings: light or radiation study, read-out: IZ
Escherichia coli [43] = test: Phototoxicity against Escherichia coli at 16.7 ug/disk in dark; assay type: functional; settings: light or radiation study, read-out: IZ
Pseudomonas fluorescens [44] = test: Phototoxicity against Pseudomonas fluorescens at 16.7 ug/disk after irradiation with W/m'2 UV light; assay type: functional; settings: light or radiation study, read-out: IZ
CHO [45] = test: Genotoxicity in CHO cells assessed as chromosomal aberrations at 5.2 ppm after 60 mins in dark followed by 5 W/m'2 UV irradiation for 30 mins; assay type: toxicity, cell-based, Cricetulus griseus; settings: chinese hamster, 0.5 h
Pseudomonas aeruginosa [46] = test: Phototoxicity against Pseudomonas aeruginosa at 16.7 ug/disk after irradiation with W/m'2 UV light; assay type: functional; settings: light or radiation study, read-out: IZ
Candida albicans [47] = test: Phototoxicity against Candida albicans at 16.7 ug/disk in dark; assay type: functional; settings: light or radiation study, read-out: IZ

Cc1ncc(C2CCCN2C)c2c1[nH]c1ccccc12 (configuration not stated) [BREVIOCOLLINE]
Activity (CHO [1]): 37.1% | zone of inhibition at 100 µg/disc (Pseudomonas fluorescens [2]): 0 mm | zone of inhibition at 100 µg/disc (Saccharomyces cerevisiae [3]): 0 mm | zone of inhibition at 100 µg/disc (Pseudomonas aeruginosa [4]): 13 mm | zone of inhibition at 100 µg/disc (Bacillus subtilis [5]): 0 mm | Activity (CHO [6]): Toxic | zone of inhibition at 100 µg/disc (Escherichia coli [7]): 0 mm | Activity (CHO [8]): 5.5% | zone of inhibition at 100 µg/disc (Staphylococcus aureus [9]): 0 mm | zone of inhibition at 100 µg/disc (Pseudomonas aeruginosa [10]): 0 mm | Activity (CHO [11]): Toxic | zone of inhibition at 100 µg/disc (Candida albicans [12]): 9.5 mm | zone of inhibition at 100 µg/disc (Enterococcus faecalis [13]): 0 mm | zone of inhibition at 100 µg/disc (Saccharomyces cerevisiae [14]): 7 mm | zone of inhibition at 100 µg/disc (Staphylococcus aureus [15]): 15.3 mm | Activity (CHO [16]): 0% | zone of inhibition at 100 µg/disc (Escherichia coli [17]): 15.5 mm | Activity (CHO [18]): 0% | zone of inhibition at 100 µg/disc (Enterococcus faecalis [19]): 14 mm | Activity (CHO [20]): Active | zone of inhibition at 100 µg/disc (Bacillus subtilis [21]): 12.5 mm | zone of inhibition at 100 µg/disc (Candida albicans [22]): 0 mm | zone of inhibition at 100 µg/disc (Pseudomonas fluorescens [23]): 7 mm | Activity (CHO [24]): 56%

COc1cc2nccc3c4ccccc4n(c1=O)c23 [5-METHOXYCANTHINONE]
zone of inhibition at 16.7 µg/disc (Bacillus subtilis [25]): 8 mm | zone of inhibition at 16.7 µg/disc (Saccharomyces cerevisiae [26]): 0 mm | zone of inhibition at 16.7 µg/disc (Pseudomonas fluorescens [27]): 0 mm | Activity (CHO [28]): Toxic | Activity (CHO [29]): Toxic | Activity (CHO [30]): Active | zone of inhibition at 16.7 µg/disc (Enterococcus faecalis [31]): 0 mm | Activity (CHO [32]): Toxic | zone of inhibition at 16.7 µg/disc (Bacillus subtilis [33]): 8 mm | zone of inhibition at 16.7 µg/disc (Staphylococcus aureus [34]): 8 mm | zone of inhibition at 16.7 µg/disc (Escherichia coli [35]): 7 mm | zone of inhibition at 16.7 µg/disc (Staphylococcus aureus [36]): 0 mm | zone of inhibition at 16.7 µg/disc (Pseudomonas aeruginosa [37]): 0 mm | zone of inhibition at 16.7 µg/disc (Candida albicans [38]): 12 mm | Activity (CHO [39]): Toxic | zone of inhibition at 16.7 µg/disc (Enterococcus faecalis [40]): 0 mm | Activity (CHO [41]): 0% | zone of inhibition at 16.7 µg/disc (Saccharomyces cerevisiae [42]): 6 mm | zone of inhibition at 16.7 µg/disc (Escherichia coli [43]): 0 mm | zone of inhibition at 16.7 µg/disc (Pseudomonas fluorescens [44]): 0 mm | Activity (CHO [45]): Toxic | zone of inhibition at 16.7 µg/disc (Pseudomonas aeruginosa [46]): 0 mm | zone of inhibition at 16.7 µg/disc (Candida albicans [47]): 0 mm
